Measured values published in the NIST ThermoML archive (doi:10.1021/je200038n).
Numbers after ± are expanded uncertainties.

Experiment: wn = mass fraction of the nth substance listed
Settings: 3000 kPa, Liquid; for viscosity: Moving piston method; for mass density: Vibrating tube method

`N#C[S-].[Na+]` [sodium thiocyanate] + N gave a viscosity (302.8 K, w2 = 0.614) of 0.76 ± 0.05 mPa·s, a viscosity (302.8 K, w2 = 0.6824) of 0.49 ± 0.05 mPa·s and a viscosity (302.8 K, w2 = 0.8921) of 0.18 ± 0.05 mPa·s. It also gave a mass density (302.8 K, w2 = 0.614) of 870 ± 2 kg/m3, a viscosity (302.9 K, w2 = 0.4998) of 1.57 ± 0.05 mPa·s and a mass density (302.9 K, w2 = 0.6824) of 821 ± 2 kg/m3. The mass density (302.9 K, w2 = 0.797) was 734.7 ± 2 kg/m3, the mass density (303 K, w2 = 0.4998) was 941 ± 2 kg/m3 and the mass density (303 K, w2 = 0.8921) was 660.5 ± 2.1 kg/m3. The viscosity (307.5 K, w2 = 0.614) was 0.71 ± 0.05 mPa·s, the viscosity (307.5 K, w2 = 0.6824) was 0.46 ± 0.05 mPa·s and the viscosity (307.5 K, w2 = 0.797) was 0.26 ± 0.05 mPa·s. It also gave a viscosity (307.6 K, w2 = 0.4998) of 1.41 ± 0.05 mPa·s, a mass density (307.6 K, w2 = 0.614) of 866.2 ± 2 kg/m3 and a mass density (307.6 K, w2 = 0.6824) of 817 ± 2 kg/m3. It also gave a mass density (307.6 K, w2 = 0.797) of 729.5 ± 2 kg/m3, a mass density (307.7 K, w2 = 0.4998) of 937.1 ± 2 kg/m3 and a viscosity (312.2 K, w2 = 0.6824) of 0.43 ± 0.05 mPa·s. The viscosity (312.2 K, w2 = 0.797) was 0.24 ± 0.05 mPa·s, the viscosity (312.2 K, w2 = 0.8921) was 0.16 ± 0.05 mPa·s and the viscosity (312.3 K, w2 = 0.4998) was 1.27 ± 0.05 mPa·s. For the same compound, the viscosity (312.3 K, w2 = 0.614) was 0.66 ± 0.05 mPa·s, the mass density (312.3 K, w2 = 0.6824) was 811 ± 2 kg/m3 and the mass density (312.4 K, w2 = 0.4998) was 933.3 ± 2 kg/m3. It also gave a mass density (312.4 K, w2 = 0.614) of 862.3 ± 2 kg/m3, a mass density (312.4 K, w2 = 0.797) of 724.2 ± 2 kg/m3 and a mass density (312.4 K, w2 = 0.8921) of 648.1 ± 2.1 kg/m3. It also gave a viscosity (316.8 K, w2 = 0.797) of 0.23 ± 0.05 mPa·s, a viscosity (317 K, w2 = 0.614) of 0.62 ± 0.05 mPa·s and a viscosity (317 K, w2 = 0.6824) of 0.4 ± 0.05 mPa·s. For the same compound, the mass density (317 K, w2 = 0.614) was 857.4 ± 2 kg/m3, the viscosity (317.1 K, w2 = 0.4998) was 1.15 ± 0.05 mPa·s and the mass density (317.1 K, w2 = 0.797) was 718.9 ± 2 kg/m3. The mass density (317.2 K, w2 = 0.4998) was 929.3 ± 2 kg/m3, the mass density (317.2 K, w2 = 0.6824) was 807 ± 2 kg/m3 and the viscosity (321.5 K, w2 = 0.797) was 0.22 ± 0.05 mPa·s. For the same compound, the viscosity (321.6 K, w2 = 0.8921) was 0.15 ± 0.05 mPa·s, the viscosity (321.7 K, w2 = 0.614) was 0.57 ± 0.05 mPa·s and the viscosity (321.7 K, w2 = 0.6824) was 0.38 ± 0.05 mPa·s. The viscosity (321.8 K, w2 = 0.4998) was 1.06 ± 0.05 mPa·s, the mass density (321.8 K, w2 = 0.614) was 852.4 ± 2 kg/m3 and the mass density (321.8 K, w2 = 0.797) was 713.6 ± 2 kg/m3. It also gave a mass density (321.9 K, w2 = 0.4998) of 925.5 ± 2 kg/m3, a mass density (321.9 K, w2 = 0.6824) of 800.5 ± 2 kg/m3 and a mass density (322 K, w2 = 0.8921) of 635.4 ± 2.1 kg/m3. It also gave a viscosity (326.4 K, w2 = 0.797) of 0.21 ± 0.05 mPa·s, a viscosity (326.5 K, w2 = 0.614) of 0.53 ± 0.05 mPa·s and a viscosity (326.5 K, w2 = 0.6824) of 0.36 ± 0.05 mPa·s. It also gave a viscosity (326.6 K, w2 = 0.4998) of 1 ± 0.05 mPa·s, a mass density (326.6 K, w2 = 0.614) of 846.9 ± 2 kg/m3 and a mass density (326.6 K, w2 = 0.797) of 708.4 ± 2 kg/m3. The mass density (326.7 K, w2 = 0.4998) was 921.4 ± 2 kg/m3, the mass density (326.7 K, w2 = 0.6824) was 795 ± 2 kg/m3 and the viscosity (331 K, w2 = 0.8921) was 0.13 ± 0.05 mPa·s. The viscosity (331.1 K, w2 = 0.797) was 0.2 ± 0.05 mPa·s, the viscosity (331.2 K, w2 = 0.614) was 0.51 ± 0.05 mPa·s and the viscosity (331.2 K, w2 = 0.6824) was 0.35 ± 0.05 mPa·s. The viscosity (331.4 K, w2 = 0.4998) was 0.92 ± 0.05 mPa·s, the mass density (331.4 K, w2 = 0.614) was 843.1 ± 2 kg/m3 and the mass density (331.4 K, w2 = 0.6824) was 792 ± 2 kg/m3. It also gave a mass density (331.4 K, w2 = 0.797) of 701 ± 2.1 kg/m3, a mass density (331.5 K, w2 = 0.4998) of 917.4 ± 2 kg/m3 and a viscosity (335.7 K, w2 = 0.797) of 0.19 ± 0.05 mPa·s. For the same compound, the viscosity (336 K, w2 = 0.6824) was 0.33 ± 0.05 mPa·s, the viscosity (336.1 K, w2 = 0.614) was 0.47 ± 0.05 mPa·s and the mass density (336.2 K, w2 = 0.614) was 838.1 ± 2 kg/m3. For the same compound, the mass density (336.2 K, w2 = 0.797) was 692.7 ± 2.1 kg/m3, the viscosity (336.3 K, w2 = 0.4998) was 0.87 ± 0.05 mPa·s and the mass density (336.3 K, w2 = 0.4998) was 913.3 ± 2 kg/m3. It also gave a mass density (336.3 K, w2 = 0.6824) of 783.1 ± 2.1 kg/m3, a viscosity (340.6 K, w2 = 0.797) of 0.18 ± 0.05 mPa·s and a viscosity (340.8 K, w2 = 0.614) of 0.46 ± 0.05 mPa·s. For the same compound, the viscosity (340.8 K, w2 = 0.6824) was 0.31 ± 0.05 mPa·s, the mass density (341 K, w2 = 0.797) was 686.7 ± 2 kg/m3 and the viscosity (341.1 K, w2 = 0.4998) was 0.82 ± 0.05 mPa·s. For the same compound, the mass density (341.1 K, w2 = 0.614) was 832.6 ± 2 kg/m3, the mass density (341.1 K, w2 = 0.6824) was 775.2 ± 2 kg/m3 and the mass density (341.2 K, w2 = 0.4998) was 909.2 ± 2 kg/m3. For the same compound, the viscosity (345.6 K, w2 = 0.614) was 0.43 ± 0.05 mPa·s, the viscosity (345.9 K, w2 = 0.4998) was 0.77 ± 0.05 mPa·s and the mass density (346 K, w2 = 0.4998) was 905.1 ± 2.6 kg/m3. The mass density (346 K, w2 = 0.614) was 826.5 ± 2.6 kg/m3, the viscosity (350.2 K, w2 = 0.614) was 0.4 ± 0.05 mPa·s and the viscosity (350.4 K, w2 = 0.4998) was 0.73 ± 0.05 mPa·s. The mass density (350.9 K, w2 = 0.4998) was 900.9 ± 2.6 kg/m3, the viscosity (359.7 K, w2 = 0.4998) was 0.65 ± 0.05 mPa·s and the viscosity (369.5 K, w2 = 0.4998) was 0.58 ± 0.05 mPa·s.
